Assay results published in PubChem BioAssay (NCI).
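Values below derive from 48-hour exposures of cells grown in 96-well plates, with endpoints linearly interpolated between the two concentrations bracketing the appropriate inhibition level. Abbreviation: GI50, concentration required for 50% inhibition of growth. TGI marks complete inhibition of growth.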 *1 amine or outer side, *2 acyl side, *3 side chain or, on linkers, in order; H or OH if unused. Where a SMILES comes first, the peptide text is derived from it. [ ]: non-standard residue; d: D form. ξ: configuration not given here. X21 = CC[C@@H](C)C(N[*:1])C(=O)[*:2]; ξR = N=C(N)NCCCC(N)C(=O)O; ξI = CCC(C)C(N)C(=O)O; ξL = CC(C)CC(N)C(=O)O; ξK = NCCCCC(N)C(=O)O; ξV = CC(C)C(N)C(=O)O; ξA = CC(N)C(=O)O

Tests used:
Assay in all cases: inhibition of tumour cell growth, NCI panel, 48 h
NCI-H522 lung = tested on: NCI-H522 lung
MALME-3M melanoma = tested on: MALME-3M melanoma
HL-60(TB) leukemia = tested on: HL-60(TB) leukemia
A549 NSCLC = tested on: A549 NSCLC
UACC-62 melanoma = tested on: UACC-62 melanoma
DU-145 prostate = tested on: DU-145 prostate
IGROV1 ovarian = tested on: IGROV1 ovarian
SN12C renal = tested on: SN12C renal
OVCAR-3 ovarian = tested on: OVCAR-3 ovarian
UO-31 renal = tested on: UO-31 renal

SMILES | GI50 (NCI-H522 lung) | TGI (NCI-H522 lung) | GI50 (MALME-3M melanoma) | TGI (MALME-3M melanoma) | GI50 (HL-60(TB) leukemia) | TGI (HL-60(TB) leukemia) | GI50 (A549 NSCLC) | TGI (A549 NSCLC) | GI50 (UACC-62 melanoma) | TGI (UACC-62 melanoma) | GI50 (DU-145 prostate) | TGI (DU-145 prostate) | GI50 (IGROV1 ovarian) | TGI (IGROV1 ovarian) | GI50 (SN12C renal) | TGI (SN12C renal) | GI50 (OVCAR-3 ovarian) | TGI (OVCAR-3 ovarian) | GI50 (UO-31 renal) | TGI (UO-31 renal)
CCCN(CCSSCCNc1nc(N(C)O)nc(N(C)O)n1)c1nc(N(C)O)nc(N(C)O)n1 | 92.1 µM | > 100 µM | 6.29 µM | > 100 µM | 3.31 µM | > 100 µM | 7.59 µM | > 100 µM | 4.39 µM | 28.9 µM | 8.78 µM | > 100 µM | 32.3 µM | > 100 µM | 9.84 µM | > 100 µM | 6.42 µM | > 100 µM | 5.19 µM | > 100 µM
CCSc1nnc(-c2ccc3ccccc3c2O)n1-c1ccc(Cl)cc1 | 5.15 µM | > 100 µM | > 100 µM | > 100 µM | 7.16 µM | > 100 µM | 4.51 µM | > 100 µM | 4.6 µM | > 100 µM | 13.1 µM | > 100 µM | 4.42 µM | > 100 µM | > 100 µM | > 100 µM | 29.4 µM | > 100 µM | 3.31 µM | > 100 µM
CS(=O)(=O)OCCN(CCOS(C)(=O)=O)c1ccc(C=O)cc1 |  | 0.553 µM |  | 26.7 µM |  | 35.4 µM |  | 35.8 µM |  | 14.5 µM |  | 7.17 µM |  | 43.3 µM |  | 41.3 µM |  | 28.5 µM |  | 3.09 µM
COc1cc(OC)c(C(=O)/C=C/c2cccc(OC(C)=O)c2)cc1CC=C(C)C | 8.76 µM | 22.2 µM | 10.6 µM | 33.3 µM | 13.3 µM | > 50 µM | 15.2 µM | > 50 µM |  |  | 6.18 µM | 14.6 µM | 15.9 µM | > 50 µM | 9.87 µM | > 50 µM | 3.44 µM | 12.6 µM | 15.9 µM | > 50 µM
C=CC1=C(C)C2=NC1=CC1=NC(=CC3=C(C)C4=C(O)C(C(=O)OC)C(=C5NC(=C2)C(C)C5CCC(=O)OC)C4=N3)C(CC)=C1C (stereo not drawn) |  | > 100 µM |  | > 100 µM |  | > 100 µM |  | > 100 µM |  | > 100 µM |  | > 100 µM |  | > 100 µM |  | > 100 µM |  | > 100 µM |  | > 100 µM
COc1ccc(-c2csc(NC(=O)c3cc(O)c(O)c(O)c3)n2)cc1 | 1.32 µM | 6.89 µM | 11.1 µM | > 33.3 µM | 8.28 µM | 23.9 µM | 10.3 µM | > 33.3 µM | 5.87 µM | > 33.3 µM | 9.59 µM | > 33.3 µM | 6.69 µM | 32.6 µM | 7.42 µM | > 33.3 µM | 12.2 µM | > 33.3 µM | 1.65 µM | > 33.3 µM
OCc1ccc(N(CCN2CCCC2)Cc2ccc(F)cc2)cc1Cl | 16.8 µM | 34.4 µM | 22.3 µM | 40.2 µM | 25.1 µM | 64.8 µM | 6.5 µM | 27.9 µM | 13.9 µM | 29.1 µM | 17.1 µM | 39.7 µM | 3.27 µM | 16.8 µM | 34.8 µM | > 100 µM | 19.5 µM | 36.6 µM | 13.8 µM | 31.2 µM
C=C1C(=O)OC2CC(C)C3C=CC(=O)C3CC12 (stereo not drawn) |  | 1.95 µM |  | 4.08 µM |  | 4.95 µM |  | 24 µM |  | 3.74 µM |  | 21.7 µM |  | 13.2 µM |  | 5.19 µM |  | 13.6 µM |  | 8.41 µM
C=C1C(=O)O[C@H]2[C@H]1CC/C(Cn1cc(-c3cc(C)c(C)cc3C)nn1)=C\CC[C@@]1(C)O[C@@H]21 | 0.282 µM | 1.17 µM | 1.43 µM | 3 µM | 0.643 µM | 3.69 µM | 1.73 µM | 4.31 µM | 1.13 µM | 2.56 µM | 1.35 µM | 2.63 µM | 1.29 µM | 2.74 µM | 1.49 µM | 3.41 µM | 1.03 µM | 2.19 µM | 0.528 µM | 1.89 µM
NC(=O)c1ccc2nc3c(n2c1)C(=O)C(=O)c1ccccc1-3 | 0.679 µM | 2.18 µM | 0.171 µM | 0.311 µM | 2.12 µM | 5.18 µM | 2.18 µM | 4.48 µM | 0.545 µM | 1.77 µM | 0.928 µM | 2.24 µM | 1.63 µM | 3.34 µM | 0.965 µM | 2.33 µM | 0.24 µM | 0.63 µM | 1.47 µM | 2.79 µM
COc1ccc(OC)c2c(=S)c3ccccc3[nH]c12 |  | > 100 µM |  | > 100 µM |  | 57.6 µM |  | > 100 µM |  | > 100 µM |  | > 100 µM |  | > 100 µM |  | > 100 µM |  | > 100 µM |  | > 100 µM
CCC(C)C1NC(=O)C(CC(C)C)NC(=O)C(C)NC(=O)C(C(C)C)NC(=O)C(CCCCN)NC(=O)C(CC(C)C)NC(=O)C(C(C)C)NC(=O)[C@H](C)NC(=O)C(C(C)CC)NC(=O)C(CCCN=C(N)N)NC(=O)C(CCCCN)NC(=O)C(CCCN=C(N)N)NC(=O)C(CCCCN)NC(=O)C([C@H](C)CC)NC(=O)C(CCCCN)NC1=O (stereo partly drawn) (cyclo(A[ξV][ξL][ξK][ξV][ξA][ξL][ξI][ξK][X21][ξK][ξR][ξK][ξR][ξI])) | 1.45 µM | 3.88 µM | 1.12 µM | 2.58 µM | 1.77 µM | 4.44 µM | 1.48 µM | 4.41 µM | 1.26 µM | 2.85 µM | 1.81 µM | 4.75 µM | 1.62 µM | 4.55 µM | 1.37 µM | 3.32 µM | 1.2 µM | 2.87 µM | 1.37 µM | 2.67 µM
Nc1ncnc2c1cnn2Cc1ccc(Cl)cc1 |  | > 100 µM | > 100 µM | > 100 µM |  | > 100 µM |  | > 100 µM | > 100 µM | > 100 µM |  | > 100 µM | > 100 µM | > 100 µM |  | > 100 µM |  | > 100 µM |  | > 100 µM
O=C(Nc1cccc(-n2cc(-c3ccncc3)c(-c3ccc(O)c(Cl)c3)n2)c1)Nc1cccc(C(F)(F)F)c1 | 1.55 µM | 4.31 µM | 1.79 µM | 6.45 µM | 2.83 µM | 7.49 µM | 1.93 µM | 8.09 µM | 2.28 µM | 5.5 µM | 3.01 µM | 11.8 µM | 2.47 µM | 5.98 µM | 2.86 µM | > 100 µM |  |  | 2.01 µM | 7.05 µM
CC(C)Nc1ncc2cc(Oc3ccc(F)cc3F)c(=O)n(C)c2n1 | > 25 µM | > 25 µM | > 25 µM | > 25 µM | > 25 µM | > 25 µM | > 25 µM | > 25 µM | > 25 µM | > 25 µM | > 25 µM | > 25 µM | > 25 µM | > 25 µM | 21.4 µM | > 25 µM | > 25 µM | > 25 µM | 5.17 µM | > 13.4 µM
CCOC(=O)Nc1nc2c(C)cccc2s1 | 47.8 µM | > 100 µM | 56.3 µM | > 100 µM | 29.9 µM | > 100 µM | 43.9 µM | > 100 µM | 36 µM | > 100 µM | 51.1 µM | > 100 µM | 46 µM | > 100 µM | 44.7 µM | > 100 µM | 41.8 µM | > 100 µM | 33.5 µM | > 100 µM
Cc1[nH]nc2c1N=C(c1ccccc1Cl)c1cc([N+](=O)[O-])ccc1N2 | 0.139 µM | > 25 µM | > 25 µM | > 25 µM | 0.104 µM | > 25 µM |  |  |  |  | 0.891 µM | > 25 µM | > 8.07 µM | > 25 µM | 3.29 µM | > 25 µM | 0.145 µM | 0.836 µM | 4.94 µM | > 25 µM
Cc1cc(=O)oc2cc(OS(C)(=O)=O)ccc12 |  | > 100 µM |  | > 100 µM |  | > 100 µM |  | > 100 µM |  | > 100 µM |  | > 100 µM |  | > 100 µM |  | > 100 µM |  | > 100 µM |  | 
Cc1ccc(Sc2sc(-c3ccccc3)nc2[P+](c2ccccc2)(c2ccccc2)c2ccccc2)cc1 | 0.306 µM | 1.25 µM | 0.27 µM | 0.92 µM | 0.194 µM | 0.521 µM |  |  | 0.317 µM | 1.25 µM | 0.379 µM | 1.37 µM |  |  | 0.323 µM | 1.1 µM | 0.346 µM | 1.23 µM | 0.24 µM | 0.811 µM
COC1=C(Br)C(=O)C2=C(C1=O)C1C3=C(C(=O)C=CC3=O)C2c2ccccc21 (stereo not drawn) | 3.26 µM | 14.4 µM | 27.8 µM | 56.8 µM |  |  | 42.1 µM | > 100 µM | 11.2 µM | 27.8 µM | 21.4 µM | 53.8 µM | 9.4 µM | 45.1 µM | 11 µM | 32.2 µM | 5.43 µM | 28.3 µM | 12.2 µM | 41.2 µM
